Measurements as given in patent publication US6784174B1, “Pyridine and pyrimidine derivatives and their use as inhibitors of cytokine mediated disease” (AstraZeneca AB, priority 1999, dated 2004).

Target: T1, p38α (Homo sapiens, UniProt Q16539)
T1 construct: c-myc (N); 6His (N); made in house; host or cells: E. coli (PET vectors)
Test: In vitro enzyme assay, p38 kinase (p38α isoform)
Type: biochemical
Method: The ability of compounds of the invention to inhibit the enzyme p38 kinase was assessed. Activity of particular test compounds against each of the p38α and p38β isoforms of the enzyme was determined.
Human recombinant MKK6 (GenBank Accesion Number G1209672) was isolated from Image clone 45578 (Genomics, 1996, 33, 151) and utilised to produce protein in the form of a GST fusion protein in a pGEX vector using analogous procedures to those disclosed by J. Han et al., Journal of Biological Chemistry, 1996, 271, 2886-2891. p38α (GenBank Accession Number G529039) and p38β (GenBank Accession Number G1469305) were isolated by PCR amplification of human lymphoblastoid cDNA (GenBank Accession Number GM1416) and human foetal brain cDNA [synthesised from mRNA (Clontech, catalogue no. 6525-1) using a Gibco superscript cDNA synthesis kit] respectively using oligonucleotides designed for the 5′ and 3′ ends of the human p38α and p38β genes using analogous procedures to those described by J. Han et al., Biochimica et Biophysica Acta, 1995, 126, 224-227 and Y. Jiang et al., Journal of Biological Chemistry, 1996, 271, 17920-17926.
Both p38 protein isoforms were expressed in e coli in PET vectors. Human recombinant p38α and p38β isoforms were produced as 5′ c-myc, 6His tagged proteins. Both MKK6 and the p38 proteins were purified using standard protocols: the GST MKK6 was purified using a glutathione sepharose column and the p38 proteins were purified using nickel chelate columns.
The p38 enzymes were activated prior to use by incubation with MKK6 for 3 hours at 30° C. The unactivated coli-expressed MKK6 retained sufficient activity to fully activate both isoforms of p38. The activation incubate comprised p38α (10 μl of 10 mg/ml) or p38β (10 μl of 5 mg/ml) together with MKK6 (10 μl of 1 mg/ml), ‘Kinase buffer’ [100 μl; pH 7.4 buffer comprising Tris (50 mM), EGTA (0.1 mM), sodium orthovanadate (0.1 mM) and β-mercaptoethanol (0.1%)] and MgATP (30 μl of 50 mM Mg(OCOCH3)2 and 0.5 mM ATP). This produced enough activated p38 enzyme for 3 Microtiter plates.
Test compounds were solubilised in DMSO and 10 μl of a 1:10 diluted sample in ‘Kinase Buffer’ was added to a well in a Microtiter plate. […] The precipitated protein was phosphorylated by p38 kinase and test compounds were assessed for their ability to inhibit this phosphorylation. The plates were filtered using a Canberra Packard Unifilter and washed with 2% TCA, dried overnight and counted on a Top Count scintillation counter.
Test compounds were tested initially at a single dose and active compounds were retested to allow IC50 values to be determined.

T1 sequence (Q16539 whole entry): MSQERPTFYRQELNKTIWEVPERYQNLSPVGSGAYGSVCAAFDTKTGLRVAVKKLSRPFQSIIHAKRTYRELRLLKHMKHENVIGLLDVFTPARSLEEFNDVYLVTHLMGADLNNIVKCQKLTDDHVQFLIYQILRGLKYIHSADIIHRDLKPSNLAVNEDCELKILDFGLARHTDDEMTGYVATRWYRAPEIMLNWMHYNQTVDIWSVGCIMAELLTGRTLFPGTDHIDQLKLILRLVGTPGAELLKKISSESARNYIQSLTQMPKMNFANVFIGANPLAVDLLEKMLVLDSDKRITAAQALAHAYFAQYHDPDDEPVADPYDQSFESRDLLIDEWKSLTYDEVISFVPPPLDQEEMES

IC50 [nM]	SMILES
40	Cc1ccc(NC(=O)c2ccnc(N3CCOCC3)c2)cc1Nc1ncnc2c(C)csc12 [3(1)]
70	Cc1ccc(NC(=O)c2ccnc(N3CCOCC3)c2)cc1Nc1ncnc2sccc12 [3(2)]
60	Cc1ccc(NC(=O)c2ccnc(N3CCOCC3)c2)cc1Nc1ncnc2ccsc12 [Example 1, 4-[2-Methyl-5-(2-morpholinopyridine-4-carboxamido)anilino]thieno[3,2-d]pyrimidine]
340	Cc1ccc(NC(=O)c2ccnc(N3CCOCC3)c2)cc1Nc1ncnc2scc(C)c12 [Example 2, 4-[2-Methyl-5-(2-morpholinopyridine-4-carboxamido)anilino]-5-methylthieno[2,3-d]pyrimidine]
